Peptide text beside a SMILES is read from it.
Tested on: Human dermal fibroblast cells
Experiment: Hyaluronic acid (HA) production in human dermal fibroblast cells, HA ELISA of the media
Assay type: cell-based
Conditions: percent change of HA production relative to vehicle control, peptide concentration 0.001%, 48h treatment in DMEM media without FBS, secreted HA in media
Description: Human dermal fibroblast cells were grown in a 96 well plate in DMEM media (available from Corning, N.Y.) supplemented with 10% Fetal Bovine Serum (FBS) and L-glutamine (0.07×10^5 cells/plate). After reaching about 75% confluence, cells were transferred into DMEM media without FBS and incubated for 4-6 hours. Next, cells were treated with peptide of Formula I at 0.00001%, 0.0001%, 0.001% final concentration in DMEM media without FBS for 48h. After treatment the media were collected, and cell viability was measured using MTT. Amount of secreted Hyaluronic Acid (HA) was tested in the media using HA Elisa kit (available from Corgenix, Broomfield, Colo.).
Results are summarized in Table 1 below as percent change of HA production relative to vehicle control: […]

CC(N)C(=O)NC(CCC(=O)O)C(=O)NC(CS)C(=O)NC(CCCCN)C(=O)O (stereo not drawn) [AECK (SEQ ID NO: 1), Ala-Glu-Cys-Lys] (H-AECK-OH; configuration not given here)
Increase in HA Production: +90-150% | Increase in HA Production (listed as peptide of Formula I): 90-150%

Reference: patent publication US20170281507A1, “Peptides and Their Use in the Treatment of Skin” (AVON PRODUCTS, INC., priority 2014, published 2017)
